SMILES strings stand for the structures. Where two headings read alike, the source gives them in different places.

The subject of experiment [1] is iCell cardiomyocytes (human iPSC-derived cardiomyocytes). The experiment in a line: High-content imaging of cytotoxicity and mitochondrial integrity in iPSC-CMs. The note with it: Homo sapiens, Cardiomyocyte, cardiomyocytes (cm). In kind it is cell-based. An outline of the steps: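 Cardiomyocytes grown on gelatinized 384-well plates received fresh medium on the experiment day and were then exposed to chemicals at 0.01–100μM. Nuclei and mitochondria were labeled with Hoechst 33342 and MitoTracker™ Orange, then fixed, and imaged on an ImageXpress® Micro Confocal system. Four-parameter logistic concentration–response fits in R, with a one-standard-deviation vehicle cutoff, gave point-of-departure values.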

The next experiment concerns HUVECs. The experiment in a line: High-content imaging cytotoxicity in HUVECs, 24 h. The class given is cell-based, human. The settings on record: Homo sapiens, HUVEC, 24 h, HUVEC, 24 hr. An outline of the steps:
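Confluent HUVEC monolayers, passages 1–5, received test chemicals for 24 h. Cytotoxicity was scored from triple-stain high-content images, with PODs defined by a one-SD deviation from 0.5% DMSO vehicle controls.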

For `Oc1ccccc1-c1ccc(Cl)cc1` [2'-OH-PCB 3], the minimal effective concentration in experiment [1] (1.5 h, cam, 90 min, read-out: POD cm.cam.90min) came to 32.8 µM; in experiment [1] (1.5 h, mii, 90 min, read-out: POD cm.mii.90min), 9.15 µM; in experiment [1] (1.5 h, mito, 90 min, read-out: POD cm.mito.90min), 41.4 µM; in experiment [1] (1.5 h, tc, 90 min, read-out: POD cm.tc.90min) it was 34.5 µM; in experiment [1] (24 h, cam, 24 hrs, read-out: POD cm.cam.24hrs), 40.4 µM; in experiment [1] (24 h, mii, 24 hrs, read-out: POD cm.mii.24hrs) it was 6.56 µM. Also, the minimal effective concentration in experiment [1] (24 h, mito, 24 hrs, read-out: POD cm.mito.24hrs) was found to be 29.8 µM; in experiment [1] (24 h, tc, 24 hrs, read-out: POD cm.tc.24hrs), 35.9 µM; in the experiment with HUVECs (cyto, read-out: POD huvec.cyto.24hr) it was 5.19 µM; in the experiment with HUVECs (mito, read-out: POD huvec.mito.24hr), 4.06 µM; in the experiment on HUVECs (mitoint, read-out: POD huvec.mitoint.24hr), 34.4 µM; with HUVECs (nma, read-out: POD huvec.nma.24hr), 1.6 µM. Also, the minimal effective concentration in the experiment with HUVECs (tc, read-out: POD huvec.tc.24hr) came to 5.19 µM.

The values are drawn from PMC7377239, “Cardiovascular Effects of Polychlorinated Biphenyls and Their Major Metabolites” (Environmental Health Perspectives, 2020).
